Data on four molecules can be found in patent US6399649B1, “Compositions and methods for the treatment of chronic lymphocytic leukemia” (Boston Medical Center Corporation, priority 1998, dated 2002).

Experiment [1] concerns CLL cells. The experiment can be described thus: Hoechst 33342 apoptosis assay, CLL cells. In kind it is cell-based, human. The conditions noted are these: for percentage of apoptotic cells: three days. The procedure: (§1) Hoechst 33342 was dissolved in water and frozen at 33 mg/mL at −20° C. One million cells/well were incubated in duplicate or triplicate in 48 well tissue culture plates (Costar, Cambridge, Mass.) with or without drug treatment for […] in 1 mL of culture media. Cells were transferred to 12×75 mm polystyrene Falcon® 2054 FACS tubes (Becton Dickinson Labware, Lincoln Park, N.J.) and incubated for ten minutes at 37° C. with Hoechst 33342 at a final concentration of […]. 23 Cells were stored on ice until analysis on a FACS Vantage flow cytometer (Becton Dickinson, San Jose, Calif.). Hoechst 33342 dye fluorescence was excited with a UV laser and detected using a 450 bandpass filter; Data was analyzed using Cellquest software (Becton Dickinson, San Jose, Calif.).
As a more quantitative analysis of CLL apoptosis, we utilized a flow cytometry method in which apoptotic cells are distinguished both by their reduced size (FSC) and their increased uptake of the lipophilic UV fluorescent dye Hoechst 33342 (FL-4) when the intact, heterogeneous cell population is incubated with a low concentration of the dye (0.25 ug/mL) for 10 minutes at 37° C. Specifically, cells were cultured for 72 hours in media (1), 1uMol/L rolipram (2), 40 uMol/L forskolin (3) or a combination of the two drugs (FIG. 6). The abcissa reflects forward light scatter and the ordinate Hoechst 33342 fluorescence. Apoptotic cells are characterized by reduced forward light scatter and increased Hoechst 33342 fluorescence. Previous reports of cAMP induced lymphoid apoptosis have noted that this form of programmed cell death may take 48 to 72 hours to develop maximally. […] CLL cells were cultured for 72 hours in one mL of media with the indicated concentration of rolipram with (black bars) or without (stippled bars) the addition of 40 uMol/L forskolin.

Experiment [2] has as its system CLL cells. The conditions noted are these: cited from earlier work.
Experiment [3] has as its system IL-2 cultured WMC (>90% CD3+ T cells). Put plainly: Hoechst 33342 apoptosis assay, IL-2 cultured WMC. In kind it is cell-based, human. The conditions noted are these: 72 hours, comparable treatments.
In experiment [4] the test system is magnetic bead purified CD19+B cells. Put plainly: Hoechst 33342 apoptosis assay, CD19+ B cells. In kind it is cell-based, human. The conditions noted are these: 72 hours. How it is done: as §1
This example describes the effect of PDE4 inhibition on normal B and T cells. […] Specifically, one million WMC were cultured with the indicated concentration of rolipram with or without the addition of 40 uMol/L forskolin for 72 hours in the presence of 2 units/mL IL-2. Apoptosis was determined by Hoechst 33342 flow cytometry. […] In contrast, magnetic bead purified CD19+B cells were sensitive to rolipram, although the increment in apoptosis observed was superimposed on a high basal apoptosis rate that has previously been reported in cultured human B cells. Given that crosslinking of cell surface immunoglobulin on resting B cells has been reported to reduce basal and forskolin-induced apoptosis in culture, we also stimulated CD19+ cells with a polyclonal Fab′2 anti-IgM/IgG reagent 30 minutes prior to the addition of the phosphodiesterase inhibitor.

Experiment [5] relates to CLL cells. Put plainly: cAMP assay (RIA) in CLL cells. In kind it is cell-based, human. The conditions noted are these: 30 uMol/L with forskolin; two hours. How it is done: One million cells in 1 mL were treated for two hours with or without drugs. 0.8 mL of cells were pelleted by spinning at 4,000 rpm (RCF=1,310) in microcentrifuge tube. After discarding 0.7 mL, 400 uL of ethanol was added, vortexed and left on ice for five minutes. Particulate cell debris was removed by centrifugation at 14,000 rpm (RCF=16,000). The supernatant was stored at −20° C. until the day of assay, at which time it was dried in a Speedivac (Savant, Farmingdale, N.Y.) to a volume of 50 uL. After ten-fold dilution in 10 mMol/L Tris pH 8.0, 1 mMol/L EDTA, the cAMP sample was analyzed for cAMP concentration using a cAMP RIA kit (NEN, Boston, Mass.) according to the manufacturer's instructions using the nonacetylated protocol.
In this example, it was determined what role type 1 and type 4 PDE activity might play in the catabolism of cyclic nucleotides in CLL cells. cAMP levels were measured after culturing leukemic cells with varying concentrations of PDE-isoform specific inhibitors, either alone or in conjunction with an activator of adenylate cyclase, the diterpene forskolin. Specifically, one million freshly isolated cells were incubated with the indicated drugs for two hours prior to analysis of cAMP in cell lysates using a radioimmunoassay. The results are shown in FIG. 4 and the data are the mean of three individually assayed culture wells.

The subject of experiment [6] is Bal-17 cells. The experiment can be described thus: cAMP assay (RIA) in Bal-17 cells. In kind it is cell-based, murine. The conditions noted are these: basal and forskolin-stimulated (data not shown). For orientation: Changes in cAMP serve as a functional read-out for many G protein-coupled receptors.
Experiment [7] deals with PDE1 enzymes. The conditions noted are these: cited from earlier work.
Setting [8] is: Pt. 3, Rai IV, Drug Res. Ch, CH, basal 38, 10 uMol/L rolipram, 40 uMol/L forskolin or 100 uMol/L dbcAMP.
[9] abbreviates: Pt. 6, Rai IV, Drug Res. Ch, basal 17 ± 4, 10 uMol/L rolipram, 40 uMol/L forskolin or 100 uMol/L dbcAMP.
Where [10] appears, read: Pt. 7, Rai II, Drug Res. Ch, basal 13 ± 2, 10 uMol/L rolipram, 40 uMol/L forskolin or 100 uMol/L dbcAMP.
Where [11] appears, read: Pt. 9, Rai IV, Drug Res. Ch, Cy, Fl, basal 4 ± 0, 10 uMol/L rolipram, 40 uMol/L forskolin or 100 uMol/L dbcAMP.
[12] abbreviates: Pt. 11, Rai 0, basal 24 ± 4, 10 uMol/L rolipram, 40 uMol/L forskolin or 100 uMol/L dbcAMP.
[13] abbreviates: Pt. 14 (significant population of cells with prolymphocyte morphology), Rai I, basal 13 ± 0, 10 uMol/L rolipram, 40 uMol/L forskolin or 100 uMol/L dbcAMP.

Structures are written as SMILES. A value given as a limit tells only on which side of the number the result lay.

For `C=C[C@@]1(C)CC(=O)[C@]2(O)[C@@]3(C)[C@@H](O)CCC(C)(C)[C@@H]3[C@H](O)[C@H](OC(C)=O)[C@@]2(C)O1` [forskolin], the “percentage of apoptotic cells” value in experiment [1] (Pt. 2, Rai IV, Drug Res. Ch, Cy, basal 18 ± 2, 10 uMol/L rolipram, 40 uMol/L forskolin or 100 uMol/L dbcAMP) was 46%; in experiment [1] (setting [8]), 59 ± 0%; in experiment [1] (setting [9]) it was 30 ± 4%; in experiment [1] (setting [10]), 32 ± 0%; in experiment [1] (Pt. 8, Rai 0, basal 5, 10 uMol/L rolipram, 40 uMol/L forskolin), 22%; in experiment [1] (setting [11]), 17 ± 4%. The “percentage of apoptotic cells” value in experiment [1] (Pt. 10, Rai I, basal 11, 10 uMol/L rolipram, 40 uMol/L forskolin or 100 uMol/L dbcAMP) was found to be 26 ± 4%; in experiment [1] (setting [12]), 40 ± 3%; in experiment [1] (Pt. 12, Rai IV, Drug Res. Ch, Fl, 2C, basal 0 ± 4, 10 uMol/L rolipram, 40 uMol/L forskolin or 100 uMol/L dbcAMP) it was 43 ± 1%; in experiment [1] (setting [13]), 19 ± 3%.

In the case of `Cn1c(=O)c2[nH]cnc2n(C)c1=O` [Theophylline], the “apoptosis in CLL cells” value in experiment [2] is “induces apoptosis”.

Consider `CCCC(=O)Nc1ncnc2c1ncn2[C@@H]1O[C@@H]2COP(=O)(O)O[C@H]2[C@H]1OC(=O)CCC` [dbcAMP, dibutyryl cAMP], for which the “percentage of apoptotic cells relative to control cells” value in experiment [1] (CLL cells, 72 hours, 10 uMol/L rolipram, 40 uMol/L forskolin, dbcAMP greater than or equal to 30 mMol/L) is given as “increased significantly”; in experiment [3] it was “did not significantly increase”; in experiment [4] (anti-Ig stimulated B cells, comparable treatments) it was “did not significantly increase”; in experiment [4] (resting B cells, 10 uMol/L rolipram, 40 uMol/L forskolin, dbcAMP greater than or equal to 30 mMol/L), “increased significantly”. Moreover, the “percentage of apoptotic cells” value in experiment [1] (setting [8]) was determined as 71 ± 3%; in experiment [1] (setting [9]), 39 ± 4%; in experiment [1] (setting [10]), 32 ± 4%; in experiment [1] (setting [11]), 46 ± 1%; in experiment [1] (setting [12]) it was 39 ± 2%; in experiment [1] (Pt. 13, Rai 0, basal 2 ± 0, 10 uMol/L rolipram, 40 uMol/L forskolin or 100 uMol/L dbcAMP) it was 23 ± 6%. In addition, the “percentage of apoptotic cells” value in experiment [1] (setting [13]) came to 22 ± 0%.

A word on the IC50: it is the point on the concentration scale where inhibition reaches its midpoint. Turning to `CCOC(=O)C1=C[C@]2(CC)CCCN3CCc4c(n1c1ccccc41)[C@@H]32` [vinpocetine], the “CLL cell cAMP” value in experiment [5] is listed as “not augmented above levels induced by forskolin alone”. For the same molecule, in experiment [6], the “cAMP levels in Bal-17 cells” value was “reduced both basal and forskolin-stimulated cAMP levels”. Also, the CLL cell apoptosis entry in experiment [1] (10 or 30 uMol/L) was “underwent apoptosis”. For the same molecule, in experiment [1] (CLL cells (data not shown)), the “time of peak apoptosis” value was no more than 24 h. The half-inhibitory concentration (IC50) in experiment [7] was 21 µM.
